# Assay results reported in US5731286A, “Cyclic neurokinin A antagonists” (Merrell Pharmaceuticals, Inc., priority 1997, dated 1998).
# System: rat urinary bladder
# Assay: In situ rat urinary bladder preparation, NKA-induced bladder contraction
# Type: in vivo
# Procedure: FIG. 6. […] Continuous tracing shown for each animal.
# Rats, (female Sprague-Dawley, 150-200 g) were anesthetized with ketamine HCl (100 mg/kg i.p.) supplemented with urethane (1.2 g/kg i.p.). […] A needle was inserted into the apex of the bladder dome and saline was perfused through the bladder at a rate of 100 μl per minute. Bladder outflow was collected via a polyethylene cannula inserted into the urethra. Bladder contractions were monitored through a flow pressure transducer connected in series with the perfusion system. Test compounds were applied onto the bladder dome in 40-100 μl of saline or saline containing a minimum of DMSO. […] Antagonist was similarly applied onto the bladder 5 min before a repeated application of NKA. […] Amplitude (force) of contraction and 1-min time intervals were recorded continuously for each animal.
substance,measurement,setting,value
neurokinin A [NKA],Effect on bladder contraction when applied onto the dome of the exposed bladder,"anesthetized rats, 10 μg topical",sustained tonic contraction and an increase in frequency
same,Threshold concentration for contraction,"applied onto bladder dome, anesthetized rats",approximately 10 μg
same,Tachyphylaxis on repeated application,repeated application of 10 μg,did not result in any tachyphylaxis
